Each structure is given as a SMILES string.

This note sets out measurements from patent US20240199587A1, “HETEROCYCLIC COMPOUNDS” (Hoffmann-La Roche Inc., priority 2021, published 2024).

In this experiment the target is T1, MAGL (Homo sapiens, UniProt Q99685).
T1 sequence (Q99685 1-303): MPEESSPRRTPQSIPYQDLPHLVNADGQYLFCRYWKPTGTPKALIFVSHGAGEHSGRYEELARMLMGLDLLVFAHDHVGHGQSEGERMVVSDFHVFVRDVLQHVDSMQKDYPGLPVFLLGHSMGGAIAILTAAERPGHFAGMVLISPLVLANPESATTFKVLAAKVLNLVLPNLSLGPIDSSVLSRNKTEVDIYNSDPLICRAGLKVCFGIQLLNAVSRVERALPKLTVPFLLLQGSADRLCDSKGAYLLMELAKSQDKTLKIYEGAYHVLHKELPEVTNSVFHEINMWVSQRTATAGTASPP
Put plainly: 2-AG assay (MAGL inhibitory activity, hydrolysis of 2-arachidonoylglycerol to arachidonic acid followed by mass spectrometry). Format: biochemical. As to conditions: 8 μM 2-arachidonoylglycerol, 15 min pre-incubation, 30 min incubation at RT, RapidFire MS readout. An excerpt: Compounds of formula (I) were profiled for MAGL inhibitory activity by determining the enzymatic activity by following the hydrolysis of the natural substrate 2-arachidonoylglycerol (2-AG) resulting in arachidonic acid, which can be followed by mass spectrometry. This assay is hereinafter abbreviated “2-AG assay”.
Compounds of formula (I) were profiled for MAGL inhibitory activity by determining the enzymatic activity by following the hydrolysis of the natural substrate 2-arachidonoylglycerol (2-AG) resulting in arachidonic acid, which can be followed by mass spectrometry. This assay is hereinafter abbreviated “2-AG assay”. The 2-AG assay was carried out in 384 well polypropylene assay plates. […] Compound dilutions were added to MAGL protein in assay buffer (50 mM TRIS, 1 mM EDTA, 0.01% (v/v) Tween-20, 2.5% (v/v) DMSO). After shaking, the plate was incubated for 15 min at RT. To start the reaction, 2-arachidonoylglycerol in assay buffer was added. The final concentrations in the assay was […] for MAGL protein and 8 μM 2-arachidonoylglyerol. After shaking and 30 min incubation at RT, the reaction was quenched by the addition of two assay volumes of acetonitrile containing 4 μM of d8-arachidonic acid. The amount of arachidonic acid formed was traced by an online SPE system (Agilent Rapidfire) coupled to a triple quadrupole mass spectrometer. A C18 SPE cartridge (Agilent G9205A) was used in an acetonitrile/water liquid setup. The mass spectrometer was operated in negative electrospray mode following the mass transitions 303.1→259.1 for arachidonic acid and 311.1→267.0 for d8-arachidonic acid. The activity of the compounds was calculated based on the ratio of intensities [arachidonic acid/d8-arachidonic acid].
The molecule `CC(C)(C)c1nc(-c2ccc(C(=O)N3CC4(CC(n5ccc(C(F)(F)F)n5)C4)C3)cc2)no1` [Example 5, [4-(5-tert-butyl-1,2,4-oxadiazol-3-yl)phenyl]-[6-[3-(trifluoromethyl)pyrazol-1-yl]-2-azaspiro[3.3]heptan-2-yl]methanone] came in with an IC50 of 85.9 nM. In the case of `CC(C)(C)c1nc(-c2ccc(C(=O)N3CC4(CC(n5cc(Cl)cn5)C4)C3)cc2)no1` [Example 6, [4-(5-tert-butyl-1,2,4-oxadiazol-3-yl)phenyl]-[6-(4-chloropyrazol-1-yl)-2-azaspiro[3.3]heptan-2-yl]methanone] it was 191 nM; in that of `CC(C)(C)c1nc(-c2ccc(C(=O)N3CC4(CC(n5cc(C6CC6)cn5)C4)C3)cc2)no1` [Example 7, [4-(5-tert-butyl-1,2,4-oxadiazol-3-yl)phenyl]-[6-(4-cyclopropylpyrazol-1-yl)-2-azaspiro[3.3]heptan-2-yl]methanone], 215 nM; in that of `CC(C)(C)c1nc(-c2ccc(C(=O)N3CC4(CC(n5ccc(C#N)n5)C4)C3)cc2)no1` [Example 8, 1-[2-[4-(5-tert-butyl-1,2,4-oxadiazol-3-yl)benzoyl]-2-azaspiro[3.3]heptan-6-yl]pyrazole-3-carbonitrile], 485 nM. Under `CC(C)(C)c1nc(-c2ccc(C(=O)N3CC4(CC(n5ccc(C6(C)CC6)n5)C4)C3)cc2)no1` [Example 9, [4-(5-tert-butyl-1,2,4-oxadiazol-3-yl)phenyl]-[6-[3-(1-methylcyclopropyl)pyrazol-1-yl]-2-azaspiro[3.3]heptan-2-yl]methanone] stands 613 nM; under `CC(C)(C)c1nc(-c2ccc(C(=O)N3CC4(CC(n5nccc5C5(C)CC5)C4)C3)cc2)no1` [Example 10, [4-(5-tert-butyl-1,2,4-oxadiazol-3-yl)phenyl]-[6-[5-(1-methylcyclopropyl)pyrazol-1-yl]-2-azaspiro[3.3]heptan-2-yl]methanone], 33.1 nM. In the case of `COc1cnn(C2CC3(C2)CN(C(=O)c2ccc(-c4noc(C(C)(C)C)n4)cc2)C3)c1` [Example 11, [4-(5-tert-butyl-1,2,4-oxadiazol-3-yl)phenyl]-[6-(4-methoxypyrazol-1-yl)-2-azaspiro[3.3]heptan-2-yl]methanone] it was 1290 nM. For `CC(C)(C)c1nc(-c2ccc(C(=O)N3CC4(CC(n5cc6c(n5)CCCC6)C4)C3)cc2)no1` [Example 12, [4-(5-tert-butyl-1,2,4-oxadiazol-3-yl)phenyl]-[6-(4,5,6,7-tetrahydroindazol-2-yl)-2-azaspiro[3.3]heptan-2-yl]methanone], the IC50 worked out at 36.7 nM. For the molecule `COc1ccn(C2CC3(C2)CN(C(=O)c2ccc(-c4noc(C(C)(C)C)n4)cc2)C3)n1` [Example 13, [4-(5-tert-butyl-1,2,4-oxadiazol-3-yl)phenyl]-[6-(3-methoxypyrazol-1-yl)-2-azaspiro[3.3]heptan-2-yl]methanone], the half-maximal inhibitory concentration (IC50) stood at 152 nM. Under `CC(C)(C)c1nc(-c2ccc(C(=O)N3CC4(CC(n5cc6c(n5)CCOC6)C4)C3)cc2)no1` [Example 14, [4-(5-tert-butyl-1,2,4-oxadiazol-3-yl)phenyl]-[6-(6,7-dihydro-4H-pyrano[4,3-c]pyrazol-2-yl)-2-azaspiro[3.3]heptan-2-yl]methanone] stands 197 nM.

In turn, `CC(C)(C)c1nc(-c2ccc(C(=O)N3CC4(CC(n5cc(F)cn5)C4)C3)cc2)no1` [Example 15, [4-(5-tert-butyl-1,2,4-oxadiazol-3-yl)phenyl]-[6-(4-fluoropyrazol-1-yl)-2-azaspiro[3.3]heptan-2-yl]methanone] displayed an IC50 of 2670 nM.

For the molecule `CC(C)(C)c1nc(-c2ccc(C(=O)N3CC4(CC(n5nccc5C(F)(F)F)C4)C3)cc2)no1` [Example 16, [4-(5-tert-buty1-1,2,4-oxadiazol-3-yl)phenyl]-[6-[5-(trifluoromethyl)pyrazol-1-yl]-2-azaspiro[3.3]heptan-2-yl]methanone], 2810 nM corresponded to half-maximal inhibition (IC50).

Turning to `CC(C)(C)c1nc(-c2ccc(C(=O)N3CC4(CC(n5ncnc5C5CC5)C4)C3)cc2)no1` [Example 17, [4-(5-tert-butyl-1,2,4-oxadiazol-3-yl)phenyl]-[6-(5-cyclopropyl-1,2,4-triazol-1-yl)-2-azaspiro[3.3]heptan-2-yl]methanone], the IC50 was found to be 3360 nM. In the case of `CC(C)(C)c1nc(-c2ccc(C(=O)N3CC4(CC(n5ncc6c5CCOC6)C4)C3)cc2)no1` [Example 18, [4-(5-tert-butyl-1,2,4-oxadiazol-3-yl)phenyl]-[6-(6,7-dihydro-4H-pyrano[4,3-c]pyrazol-1-yl)-2-azaspiro[3.3]heptan-2-yl]methanone] it was 3730 nM.

As to `COc1ccnn1C1CC2(C1)CN(C(=O)c1ccc(-c3noc(C(C)(C)C)n3)cc1)C2` [Example 19, [4-(5-tert-butyl-1,2,4-oxadiazol-3-yl)phenyl]-[6-(5-methoxypyrazol-1-yl)-2-azaspiro[3.3]heptan-2-yl]methanone], half-maximal inhibition (IC50) was put at 4170 nM. In the case of `CC(C)(C)c1nc(-c2ccc(C(=O)N3CC4(CC(n5cnc(C#N)n5)C4)C3)cc2)no1` [Example 20, 1-[2-[4-(5-tert-butyl-1,2,4-oxadiazol-3-yl)benzoyl]-2-azaspiro[3.3]heptan-6-yl]-1,2,4-triazole-3-carbonitrile] it was 82 nM; in that of `CC(C)(C)c1nc(-c2ccc(C(=O)N3CC4(CC(n5ncc6c5CCCC6)C4)C3)cc2)no1` [Example 22, [4-(5-tert-butyl-1,2,4-oxadiazol-3-yl)phenyl]-[6-(4,5,6,7-tetrahydroindazol-1-yl)-2-azaspiro[3.3]heptan-2-yl]methanone], 451 nM; in that of `Cc1ccc(C2CC3(C2)CN(C(=O)c2ccc(-c4noc(C(C)(C)C)n4)cc2)C3)cn1` [Example 23, [4-(5-tert-butyl-1,2,4-oxadiazol-3-yl)phenyl]−[6-(6-methyl-3-pyridyl)-2-azaspiro[3.3]heptan-2-yl]methanone], 229 nM. In the case of `Cc1cc(C(=O)N2CC3(CC(n4cnc(C5CC5)n4)C3)C2)cnc1OCC1(C(F)(F)F)CC1` [Example 24, [6-(3-cyclopropyl-1,2,4-triazol-1-yl)-2-azaspiro[3.3]heptan-2-yl]-[5-methyl-6-[[1-(trifluoromethyl)cyclo-propyl]methoxy]-3-pyridyl]methanone] it was 7.7 nM; in that of `Cc1cc(C(=O)N2CC3(CC(n4cnc(C5CC5)c4)C3)C2)cnc1OCC1(C(F)(F)F)CC1` [Example 25, [6-(4-cyclopropylimidazol-1-yl)-2-azaspiro[3.3]heptan-2-yl]-[5-methyl-6-[[1-(trifluoromethyl)cyclo-propyl]methoxy]-3-pyridyl]methanone], 12.2 nM; in that of `O=C(c1cnc(OCC2(C(F)(F)F)CC2)c(F)c1)N1CC2(CC(n3cnc(C4CC4)n3)C2)C1` [Example 26, [6-(3-cyclopropyl-1,2,4-triazol-1-yl)-2-azaspiro[3.3]heptan-2-yl]−[5-fluoro-6-[[1-(trifluoromethyl)cyclopropyl]methoxy]-3-pyridyl]methanone], 19.8 nM.

Regarding `Cc1nc(C(=O)N2CC3(CC(n4cnc(C5CC5)n4)C3)C2)cnc1OCC1(C(F)(F)F)CC1` [Example 27, [6-(3-cyclopropyl-1,2,4-triazol-1-yl)-2-azaspiro[3.3]heptan-2-yl]-[6-methyl-5-[[1-(trifluoromethyl)cyclo-propyl]methoxy]pyrazin-2-yl]methanone], half-maximal inhibition (IC50) required 26.5 nM. As to `O=C(c1cnc(OCC2(C(F)(F)F)CC2)c(F)c1)N1CC2(CC(n3cnc(C4CC4)c3)C2)C1` [Example 28, [6-(4-cyclopropylimidazol-1-yl)-2-azaspiro[3.3]heptan-2-yl]-[5-fluoro-6-[[1-(trifluoromethyl)cyclo-propyl]methoxy]-3-pyridyl]methanone], the IC50 came out at 50 nM.

The molecule `CC1(COc2ncc(C(=O)N3CC4(CC(n5cnc(C6CC6)n5)C4)C3)cc2F)CC1` [Example 29, [6-(3-cyclopropyl-1,2,4-triazol-1-yl)-2-azaspiro[3.3]heptan-2-yl]-[5-fluoro-6-[(1-methylcyclopropyl)methoxy]-3-pyridyl]methanone] registered an IC50 of 52.2 nM. `CC1(COc2ncc(C(=O)N3CC4(CC(n5cnc(C6CC6)c5)C4)C3)cc2F)CC1` [Example 30] had an IC50 of 108 nM. In the case of `O=C(c1cnc(OCC2(C(F)(F)F)CC2)nc1)N1CC2(CC(n3cnc(C4CC4)n3)C2)C1` [Example 31, [6-(3-cyclopropyl-1,2,4-triazol-1-yl)-2-azaspiro[3.3]heptan-2-yl]-[2-[[1-(trifluoromethyl)cyclo-propyl]methoxy]pyrimidin-5-yl] methanone] it was 353 nM.

A word on the IC50: it is the concentration that gives 50% inhibition. High values mean weaker potency in that assay, low ones greater potency in that assay.
